Measured values as given in ChEMBL document CHEMBL3526017, “Predicting the drug interaction potential of AMG 853, a dual antagonist of the D-prostanoid and chemoattractant receptor-homologous molecule expressed on T helper 2 cells receptors” (Drug Metab Dispos, 2012).

What was measured:
[1] = biological target: T1, UDP-glucuronosyltransferase 2B7 (Homo sapiens, UniProt P16662); assay: Drug metabolism assessed as human recombinant UGT2B7-mediated compound formation treated with AMG 853 at 10 uM after 30 mins by LC-MS/MS analysis; type: ADME; conditions: recombinant enzyme, 0.5 h
T1 sequence (P16662 whole entry): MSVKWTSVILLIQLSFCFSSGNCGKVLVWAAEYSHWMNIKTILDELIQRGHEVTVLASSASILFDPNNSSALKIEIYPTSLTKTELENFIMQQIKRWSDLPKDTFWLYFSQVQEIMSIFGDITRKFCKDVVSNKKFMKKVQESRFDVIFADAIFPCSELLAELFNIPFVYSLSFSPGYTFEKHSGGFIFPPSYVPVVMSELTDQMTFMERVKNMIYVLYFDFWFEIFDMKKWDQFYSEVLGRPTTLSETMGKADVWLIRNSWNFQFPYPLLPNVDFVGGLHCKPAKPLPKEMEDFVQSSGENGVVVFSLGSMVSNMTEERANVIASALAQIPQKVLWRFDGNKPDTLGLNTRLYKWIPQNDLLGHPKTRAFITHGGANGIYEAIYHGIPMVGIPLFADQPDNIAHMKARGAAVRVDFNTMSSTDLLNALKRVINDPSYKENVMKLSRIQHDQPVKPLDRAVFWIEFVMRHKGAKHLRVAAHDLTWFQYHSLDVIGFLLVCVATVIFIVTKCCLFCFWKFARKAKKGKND

[2] = biological target: T2, UDP-glucuronosyltransferase 1A8 (Homo sapiens, UniProt Q9HAW9); assay: Drug metabolism assessed as human recombinant UGT1A8-mediated compound formation treated with AMG 853 at 10 uM after 30 mins by LC-MS/MS analysis; type: ADME; conditions: recombinant enzyme, 0.5 h
T2 sequence (Q9HAW9 whole entry): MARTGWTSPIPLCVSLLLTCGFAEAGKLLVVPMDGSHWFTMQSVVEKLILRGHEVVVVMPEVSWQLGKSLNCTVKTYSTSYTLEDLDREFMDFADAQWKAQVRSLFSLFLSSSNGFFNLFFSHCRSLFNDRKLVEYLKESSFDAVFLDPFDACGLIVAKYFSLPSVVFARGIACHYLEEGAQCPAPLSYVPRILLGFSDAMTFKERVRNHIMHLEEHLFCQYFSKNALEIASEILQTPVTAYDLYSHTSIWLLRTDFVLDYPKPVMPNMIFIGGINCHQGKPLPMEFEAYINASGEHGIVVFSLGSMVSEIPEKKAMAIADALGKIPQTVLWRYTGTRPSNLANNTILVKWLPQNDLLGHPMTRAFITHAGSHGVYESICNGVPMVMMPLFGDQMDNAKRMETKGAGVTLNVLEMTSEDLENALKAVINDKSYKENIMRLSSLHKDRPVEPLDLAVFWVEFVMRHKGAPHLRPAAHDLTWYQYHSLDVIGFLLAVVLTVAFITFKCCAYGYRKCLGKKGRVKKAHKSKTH

[3] = biological target: T2, UDP-glucuronosyltransferase 1A8; assay: Drug metabolism assessed as human recombinant UGT1A8-mediated (2S,3S,4S,5R,6S)-6-(2-(4-(4-(tert-butylcarbamoyl)-2-(2-chloro-4-cyclopropylphenylsulfonamido)phenoxy)-5-chloro-2-fluorophenyl)acetoxy)-3,4,5-trihydroxytetrahydro-2H-pyran-2-carboxylic acid formation at 10 uM after 30 mins by LC-MS/MS analysis; type: ADME; conditions: recombinant enzyme, 0.5 h
Cytochrome P450 2C8 = biological target: T3, Cytochrome P450 2C8 (Homo sapiens, UniProt P10632); assay: Competitive inhibition of CYP2C8 in human liver microsomes assessed as rosiglitazone demethylation after 20 mins by LC-MS/MS analysis; type: ADME
T3 sequence (P10632 whole entry): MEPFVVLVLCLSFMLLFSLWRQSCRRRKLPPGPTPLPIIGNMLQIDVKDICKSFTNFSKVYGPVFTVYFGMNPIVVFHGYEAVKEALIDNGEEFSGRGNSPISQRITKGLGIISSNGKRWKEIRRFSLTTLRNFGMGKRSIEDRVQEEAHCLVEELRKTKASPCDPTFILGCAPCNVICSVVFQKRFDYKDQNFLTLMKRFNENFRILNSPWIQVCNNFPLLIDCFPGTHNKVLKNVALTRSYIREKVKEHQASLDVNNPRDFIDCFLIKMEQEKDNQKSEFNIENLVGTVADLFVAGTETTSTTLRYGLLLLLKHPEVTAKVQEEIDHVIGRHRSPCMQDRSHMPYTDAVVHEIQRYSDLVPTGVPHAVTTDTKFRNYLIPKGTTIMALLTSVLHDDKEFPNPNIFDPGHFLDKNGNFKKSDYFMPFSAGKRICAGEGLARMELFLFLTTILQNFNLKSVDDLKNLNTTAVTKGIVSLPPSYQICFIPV

CYP3A4 = CYP3A4 (Homo sapiens, UniProt P08684); assay: Induction of CYP3A4 in human hepatocytes using midazolam as substrate at 0.3 to 30 uM treated every 24 hrs for 2 days measured on day 5 by LC-MS/MS analysis relative to control
Sequence of CYP3A4 (P08684 whole entry): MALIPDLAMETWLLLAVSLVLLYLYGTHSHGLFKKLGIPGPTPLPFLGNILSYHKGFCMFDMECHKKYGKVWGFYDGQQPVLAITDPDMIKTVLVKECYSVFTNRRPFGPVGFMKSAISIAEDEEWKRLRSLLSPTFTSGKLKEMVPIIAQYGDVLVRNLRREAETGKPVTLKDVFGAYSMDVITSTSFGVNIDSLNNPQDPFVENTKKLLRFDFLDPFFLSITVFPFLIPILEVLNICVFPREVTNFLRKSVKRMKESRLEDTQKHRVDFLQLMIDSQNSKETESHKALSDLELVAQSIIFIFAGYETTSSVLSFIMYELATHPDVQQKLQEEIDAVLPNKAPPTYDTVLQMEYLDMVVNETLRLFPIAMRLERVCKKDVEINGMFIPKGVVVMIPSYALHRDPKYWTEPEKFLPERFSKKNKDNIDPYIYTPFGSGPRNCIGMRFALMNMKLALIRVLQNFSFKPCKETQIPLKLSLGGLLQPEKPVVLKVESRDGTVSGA

Liver microsome = assay: Drug metabolism in human liver microsomes assessed as 2-(5-chloro-4-(2-(2-chloro-4-cyclopropylphenylsulfonamido)-4-(1-hydroxy-2-methylpropan-2-ylcarbamoyl)phenoxy)-2-fluorophenyl)acetic acid formation at 2 uM after 60 mins by LC-MS/MS analysis in presence of montelukast; type: ADME; conditions: 1 h

| Drug metabolism [1] | Drug metabolism [2] | Ki (Cytochrome P450 2C8) [µM] | fold induction at 48 h, 30 µM (CYP3A4) | Drug metabolism (Liver microsome) | Compound | Drug metabolism [3] |
| --- | --- | --- | --- | --- | --- | --- |
| metabolite_detected | metabolite_detected |  |  |  | CC(C)(C)NC(=O)c1ccc(Oc2cc(F)c(CC(=O)O[C@@H]3O[C@H](C(=O)O)[C@@H](O)[C@H](O)[C@H]3O)cc2Cl)c(NS(=O)(=O)c2ccc(C3CC3)cc2Cl)c1 |  |
|  |  | 6 | 1.4 | metabolite_not_detected | CC(C)(C)NC(=O)c1ccc(Oc2cc(F)c(CC(=O)O)cc2Cl)c(NS(=O)(=O)c2ccc(C3CC3)cc2Cl)c1 [VIDUPIPRANT] | metabolite_detected |
